pIC50: −log10 of the molar value. Structures can show the parent of a compound that is named as a salt.
Legend:
[1] = target: BACE1 enzyme (Homo sapiens (Human), UniProt P56817); experiment: BACE1 Cell-Free Assay (fluorescence polarization, synthetic APP substrate); format: biochemical; conditions: geometric mean of 2-7 determinations (values marked b: single determination)
Source text: This assay measures the inhibition of the beta-secretase enzyme as it cleaves a non-native peptide.
A synthetic APP substrate that can be cleaved by beta-secretase having N-terminal biotin and made fluorescent by the covalent attachment of Oregon Green at the Cys residue is used to assay beta-secretase activity in the presence or absence of the inhibitory compounds. […] The BACE1 enzyme is affinity purified material from conditioned media of CHO-K1 cells that have been transfected with a soluble BACE construct (BACE1deltaTM96His). Compounds are incubated in a ½ log dose response curve from a top concentration of 100 μM with BACE1 enzyme and the biotinylated fluorescent peptide in 384-well black plates (Thermo Scientific #4318). BACE1 is at a final concentration of 0.1 nM with a final concentration of peptide substrate of 150 nM in a reaction volume of 30 μL assay buffer (100 mM sodium acetate, pH 4.5 (brought to pH with acetic acid), and 0.001% Tween-20). Plates are covered and incubated for 3 hours at 37° C. The reaction is stopped with the addition of 30 μL of 1.5 μM Streptavidin (Pierce, #21125). After a 10 minute incubation at room temperature, plates are read on a PerkinElmer Envision for fluorescent polarization (Ex485 nm/Em530 nm). The activity of the beta-secretase enzyme is detected by changes in the fluorescence polarization that occur when the substrate is cleaved by the enzyme.

[2] = system: H4 human neuroglioma cells over-expressing the wild-type human APP695; experiment: sAPPβ Whole-Cell Assay (in vitro sAPPb assay, ELISA); format: cell-based; conditions: 18 hours, geometric mean of 2-7 determinations (values marked b: single determination)
Procedure: Whole Cell-Free Assay (In Vitro sAPPb Assay):
H4 human neuroglioma cells over-expressing the wild-type human APP695 are treated for 18 hours with compound in a final concentration 1% DMSO. sAPPβ levels are measured using TMB-ELISA with capture APP N-terminal antibody (Affinity BioReagents, OMA1-03132), wild-type sAPPβ specific reporter p192 (Elan), and tertiary anti rabbit-HRP (GE Healthcare).

[3] = target: BACE2 enzyme (Homo sapiens (Human), UniProt Q9Y5Z0); experiment: BACE2 Cell-free Assay (fluorescence polarization, synthetic substrate); format: biochemical; conditions: single determination
Procedure: This assay measures the inhibition of the BACE2 enzyme as it cleaves a non-native peptide. A synthetic substrate that can be cleaved by BACE2 having N-terminal biotin and made fluorescent by the covalent attachment of Oregon Green at the Cys residue is used to assay BACE2 activity in the presence or absence of the inhibitory compounds. The substrate is Biotin-[…]-C(Oregon green)-KK-OH. The BACE2 enzyme is available from Enzo Life Sciences (Cat # BML-SE550). Compounds are incubated in a ½ log dose response curve from a top concentration of 100 μM with BACE2 enzyme and the biotinylated fluorescent peptide in 384-well black plates (Thermo Scientific #4318). BACE2 is at a final concentration of 2.5 nM with a final concentration of peptide substrate of 150 nM in a reaction volume of 30 μL assay buffer (100 mM Sodium Acetate, pH 4.5 (brought to pH with acetic acid), and 0.001% Tween-20). Plates are covered and incubated for 3 hours at 37° C. The reaction is stopped with the addition of 30 μL of 1.5 μM Streptavidin (Pierce, #21125). After a 10 minute incubation at room temperature, plates are read on a PerkinElmer Envision for fluorescent polarization (Ex485 nm/Em530 nm). The activity of the beta-secretase enzyme is detected by changes in the fluorescence polarization that occur when the substrate is cleaved by the enzyme.

Chain of BACE1 enzyme (P56817 46-457): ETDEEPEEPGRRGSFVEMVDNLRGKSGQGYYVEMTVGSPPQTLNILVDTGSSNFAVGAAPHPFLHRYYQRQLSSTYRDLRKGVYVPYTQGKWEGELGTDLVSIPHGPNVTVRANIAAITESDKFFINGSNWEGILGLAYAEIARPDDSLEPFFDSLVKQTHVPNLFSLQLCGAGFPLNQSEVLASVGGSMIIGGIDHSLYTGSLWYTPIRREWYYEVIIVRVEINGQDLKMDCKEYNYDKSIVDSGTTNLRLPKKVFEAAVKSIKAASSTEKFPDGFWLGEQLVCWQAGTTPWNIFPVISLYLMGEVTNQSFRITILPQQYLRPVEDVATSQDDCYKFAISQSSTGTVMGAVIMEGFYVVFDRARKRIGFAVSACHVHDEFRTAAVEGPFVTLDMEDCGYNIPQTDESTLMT
Chain of BACE2 enzyme (Q9Y5Z0 63-518): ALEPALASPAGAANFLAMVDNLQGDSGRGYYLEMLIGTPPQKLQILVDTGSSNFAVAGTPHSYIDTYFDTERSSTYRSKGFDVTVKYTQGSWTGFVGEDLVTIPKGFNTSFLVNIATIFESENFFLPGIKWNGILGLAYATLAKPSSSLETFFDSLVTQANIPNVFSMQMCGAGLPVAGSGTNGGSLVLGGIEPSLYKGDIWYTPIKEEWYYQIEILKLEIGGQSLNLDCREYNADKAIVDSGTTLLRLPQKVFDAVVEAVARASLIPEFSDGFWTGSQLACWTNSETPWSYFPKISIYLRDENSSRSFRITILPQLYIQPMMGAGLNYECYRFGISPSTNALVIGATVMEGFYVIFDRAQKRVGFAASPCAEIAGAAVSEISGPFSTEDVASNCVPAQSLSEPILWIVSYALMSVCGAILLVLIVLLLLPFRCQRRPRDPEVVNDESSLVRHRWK

| pIC50 ([2]; Homo sapiens) | Compound | pIC50 [1] | pIC50 [2] | pIC50 [3] |
| --- | --- | --- | --- | --- |
|  | Cn1ccc([C@H]2C[C@H]3CSC(N)=N[C@@]3(c3ccc(F)cc3F)CO2)n1 [Example 2, (4aR,6R,8aS)-8a-(2,4-Difluorophenyl)-6-(1-methyl-1H-pyrazol-3-yl)-4,4-a,5,6,8,8a-hexahydropyrano[3,4-][1,3]thiazin-2-amine] | 6.74 | 7.77 | 5.32 |
| 8.22 | Cc1coc([C@H]2C[C@H]3[C@@H](C)SC(N)=N[C@@]3(c3ccc(F)cc3F)CO2)n1 [Example 22, (4R,4aR,6R,8aS)-8a-(2,4-difluorophenyl)-4-methyl-6-(4-methyl-1,3-oxazol-2-yl)-4,4a,5,6,8,8a-hexahydropyrano[3,4-d][1,3]thiazin-2-amine] |  |  | 5.85 |
|  | Cc1nccc([C@H]2C[C@H]3CSC(N)=N[C@@]3(c3ccc(F)cc3F)CO2)n1 [Example 9, (4aR,6R,8aS)-8a-(2,4-Difluorophenyl)-6-(2-methylpyrimidin-4-yl)-4,4-a,5,6,8,8a-hexahydropyrano[3,4-][1,3]thiazin-2-amine] | 6.23 | 7.55 | < 4.00 |
|  | NC1=N[C@@]2(c3ccc(F)cc3F)CO[C@@H](c3ccn(C4CC4)n3)C[C@H]2CS1 [Example 19, (4aR,6R,8aS)-6-(1-cyclopropyl-1H-pyrazol-3-yl)-8a-(2,4-difluorophenyl)-4,4a,5,6,8,8a-hexahydropyrano[3,4-d][1,3]thiazin-2-amine] | 6.35 |  |  |
|  | C[C@H]1SC(N)=N[C@@]2(c3ccc(F)cc3F)CO[C@@H](c3ncco3)C[C@@H]12 [Example 6, (4R,4aR,6R,8aS)-8a-(2,4-Difluorophenyl)-4-methyl-6-(1,3-oxazol-2-yl)-4,4-a,5,6,8,8a-hexahydropyrano[3,4-][1,3]thiazin-2-amine] | 6.70 | 7.49 | 5.63 |
|  | (4aR,6R,8aS)-8a-(2,4-Difluorophenyl)-6-(3-methyl-1,2,4-oxadiazol-5-yl)-4,4-a,5,6,8,8a-hexahydropyrano[3,4-][1,3]thiazin-2-amine, trifluoroacetate salt [Example 13] | 6.36 | 7.47 | 6.68 |
| 7.85 | NC1=N[C@@]2(c3ccc(F)cc3F)CO[C@@H](c3nc(C(F)(F)F)co3)C[C@H]2CS1 [Example 20, (4aR,6R,8aS)-8a-(2,4-difluorophenyl)-6-[4-(trifluoromethyl)-1,3-oxazol-2-yl]-4,4a,5,6,8,8a-hexahydropyrano[3,4-d][1,3]thiazin-2-amine] | 6.33 |  | 6.20 |
|  | Cc1csc([C@H]2C[C@H]3CSC(N)=N[C@@]3(c3ccc(F)cc3F)CO2)n1 [Example 8, (4aR,6R,8aS)-8a-(2,4-Difluorophenyl)-6-(4-methyl-1,3-thiazol-2-yl)-4,4-a,5,6,8,8a-hexahydropyrano[3,4-][1,3]thiazin-2-amine] | 6.59 | 7.57 | 5.01 |
|  | NC1=N[C@@]2(c3ccc(F)cc3F)CO[C@@H](c3ncco3)C[C@H]2CS1 [Example 1, (4aR,6R,8aS)-8a-(2,4-Difluorophenyl)-6-(1,3-oxazol-2-yl)-4,4-a,5,6,8,8a-hexahydropyrano[3,4-][1,3]thiazin-2-amine] | 6.29 | 7.49 | 6.21 |
| 7.62 | Cc1cnc([C@H]2C[C@H]3CSC(N)=N[C@@]3(c3ccc(F)cc3F)CO2)nc1 [Example 24, (4aR,6R,8aS)-8a-(2,4-difluorophenyl)-6-(5-methylpyrimidin-2-yl)-4,4a,5,6,8,8a-hexahydropyrano[3,4-d][1,3]thiazin-2-amine, trifluoroacetate salt] | 6.16 |  | 5.97 |
|  | Cc1nc([C@H]2C[C@H]3CSC(N)=N[C@@]3(c3ccc(F)cc3F)CO2)co1 [Example 11, (4aR,6R,8aS)-8a-(2,4-Difluorophenyl)-6-(2-methyl-1,3-oxazol-4-yl)-4,4-a,5,6,8,8a-hexahydropyrano[3,4-d][1,3]thiazin-2-amine, hydrochloride salt] | 6.50 | 7.47 | 5.69 |
|  | Cc1cc([C@H]2C[C@H]3CSC(N)=N[C@@]3(c3ccc(F)cc3F)CO2)on1 [Example 16, (4aR,6R,8aS)-8a-(2,4-Difluorophenyl)-6-(3-methyl-1,2-oxazol-5-yl)-4,4-a,5,6,8,8a-hexahydropyrano[3,4-][1,3]thiazin-2-amine] | 7.23 | 8.52 |  |
|  | Cc1coc([C@H]2C[C@H]3CSC(N)=N[C@@]3(c3ccc(F)cc3F)CO2)n1 [Example 4, (4aR,6R,8aS)-8a-(2,4-Difluorophenyl)-6-(4-methyl-1,3-oxazol-2-yl)-4,4-a,5,6,8,8a-hexahydropyrano[3,4-][1,3]thiazin-2-amine] | 7.08 | 8.40 | 6.56 |
|  | Cn1nccc1[C@H]1C[C@H]2CSC(N)=N[C@@]2(c2ccc(F)cc2F)CO1 [Example 3, (4aR,6R,8aS)-8a-(2,4-Difluorophenyl)-6-(1-methyl-1H-pyrazol-5-yl)-4,4-a,5,6,8,8a-hexahydropyrano[3,4-d][1,3]thiazin-2-amine] | 5.11 | 6.20 |  |
| 7.36 | NC1=N[C@@]2(c3ccc(F)cc3F)CO[C@@H](c3ncccn3)C[C@H]2CS1 [Example 21, (4aR,6R,8aS)-8a-(2,4-difluorophenyl)-6-(pyrimidin-2-yl)-4,4a,5,6,8,8a-hexahydropyrano[3,4-d][1,3]thiazin-2-amine] | 6.01 |  | 5.51 |
|  | Cc1ccnc([C@H]2C[C@H]3CSC(N)=N[C@@]3(c3ccc(F)cc3F)CO2)n1 [Example 12, (4aR,6R,8aS)-8a-(2,4-Difluorophenyl)-6-(4-methylpyrimidin-2-yl)-4,4-a,5,6,8,8a-hexahydropyrano[3,4-][1,3]thiazin-2-amine] | 5.83 | 7.30 |  |
|  | Cc1nc([C@H]2C[C@H]3CSC(N)=N[C@@]3(c3ccc(F)cc3F)CO2)oc1C [Example 15, (4aR,6R,8aS)-8a-(2,4-Difluorophenyl)-6-(4,5-dimethyl-1,3-oxazol-2-yl)-4,4-a,5,6,8,8a-hexahydropyrano[3,4-d][1,3]thiazin-2-amine] | 6.95 | 8.15 | 5.55 |
| 8.00 | NC1=N[C@@]2(c3ccc(F)cc3F)CO[C@@H](c3ncc(F)cn3)C[C@H]2CS1 [Example 23, (4aR,6R,8aS)-8a-(2,4-difluorophenyl)-6-(5-fluoropyrimidin-2-yl)-4,4a,5,6,8,8a-hexahydropyrano[3,4-d][1,3]thiazin-2-amine] | 6.79 |  |  |
|  | NC1=N[C@@]2(c3ccc(F)cc3F)CO[C@@H](c3nnco3)C[C@H]2CS1 [Example 14, (4aR,6R,8aS)-8a-(2,4-Difluorophenyl)-6-(1,3,4-oxadiazol-2-yl)-4,4-a,5,6,8,8a-hexahydropyrano[3,4-][1,3]thiazin-2-amine] | 5.66 | 6.71 |  |
|  | Cn1cc([C@H]2C[C@H]3CSC(N)=N[C@@]3(c3ccc(F)cc3F)CO2)cn1 [Example 7, (4aR,6R,8aS)-8a-(2,4-Difluorophenyl)-6-(1-methyl-1H-pyrazol-4-yl)-4,4-a,5,6,8,8a-hexahydropyrano[3,4-][1,3]thiazin-2-amine] |  | 8.30 | 6.73 |

Source: patent US8962616B2, “Heterocyclic substituted hexahydropyrano[3,4-d][1,3]thiazin-2-amine compounds” (Pfizer Inc., priority 2012, dated 2015)
